Entries after “also recorded” stand apart in the source; their conditions may differ.
What was measured:
MC38 cells = assay: MC38 mouse therapy model, tumor growth and survival; type: in vivo, C57BL/6 mice
Protocol: FIG. 1-1 a) CD8^+ T cells or CD3^+ T cells were isolated from mice, and 2×10^5 cells were stimulated with CD3/CD28 beads in 96-well U plates. After 24 hours and 48 hours, cells and culture supernatant were collected, followed by measurement of spermidine (SPD) concentration by mass spectrometry. […] Ten days after inoculation, PD-L1 antibody (2 mg/kg), PD-L1 antibody+SPD (2 mg/kg), or SPD alone was administered. Subsequently, PD-L1 antibody was administered 4 times at a regular interval of 5 days, and SPD was administered 8 times at a regular interval of 3 days. Tumor growth curve and survival curve are shown. c) Draining lymph nodes (DLNs) of mice were isolated 13 days after tumor inoculation, and stained with antibodies to CD8, CD44 and CD62L. The number of cells in draining lymph node (cells/DLN) in each treatment group is shown at the left side. After being gated, CD8^+ T cells were fractionated with CD44 and CD62L into P1 to P4 cell populations. Percentages and cell numbers of P1 to P4 in each treatment group are shown. d) Tumor was isolated 13 days after tumor inoculation and treated with collagenase. Percentages and numbers per mg tumor of tumor-infiltrating CD8^+ CD45.2^+ cells are shown. For statistical analysis, ANOVA was used. * p<0.05, ** p<0.01, *** p<0.001, **** p<0.0001.
FIG. 8 MC38 cells (5×10^5) were intradermally inoculated into C57BL/6 mice. Ten days after inoculation, PD-L1 antibody (2 mg/kg), PD-L1 antibody+SPD (2 mg/kg) or PD-L1 antibody+SPM (6 mg/kg) was administered. Subsequently, […] was administered 4 times at a regular interval of 5 days, whereas SPD and SPM were administered 8 times at a regular interval of 3 days. Tumor growth curve is shown.
MC38 cells (5×10^5) were intradermally injected on the right flank. Ten days after inoculation, PD-L1 antibody (1-111A; prepared by and stored at the Department of Immunology and Genomic Medicine, Graduate School of Medicine, Kyoto University) (Immunology Letters 84 (2002) 57-62) (2 mg/kg), PD-L1 antibody+SPD (2 mg/kg) or SPD alone was administered to mice. Subsequently, PD-L1 antibody was administered 4 times at a regular interval of 5 days, and SPD was administered 8 times at a regular interval of 3 days. Tumors were measured on every alternate day, and tumor volumes were calculated using the formula for typical ellipsoid, π×(length×breadth×height/6).

[1] = system: CD8+ T cells in draining lymph nodes; assay: CD3/CD28 restimulation of draining lymph node CD8+ T cells of treated mice (3H uptake, IFN-γ ELISA); type: in vivo, C57BL/6 mice; conditions: combined use of SPD, 24 hours
Protocol: FIG. 2-1 a) Treated mice were analyzed for draining lymph nodes and the inside of tumor. Briefly, draining lymph nodes of mice were isolated 13 days after tumor inoculation, and stained with antibodies to CD8 and Sca-1. FACS diagram and percentages of Sca-1^+ cells in CD8^+ T cells are shown. b) CD8^+ T cells in isolated draining lymph nodes were stimulated with CD3/CD28 antibody beads. After 24 hours, cell proliferation was examined by means of ^3H uptake. At the same time, IFN-γ concentration in culture supernatant was measured. c) Tumor from the same mice as described above was treated with collagenase. Then, expression rates of PD-1 and Tim3 in tumor-infiltrating CD8^+ T cells were analyzed. d) Oxygen consumption rate (OCR) and extracellular acidification rate (ECAR) of draining lymph node CD8^+ T cells were measured with a Seahorse analyzer (N=3 wells). For statistical analysis, ANOVA was used. * p<0.05, ** p<0.01, *** p<0.001, **** p<0.0001.
IFN-γ levels in culture supernatant were measured quantitatively with mouse IFN-γ kit (BioLegend) following the instructions on the kit.

MethA or CT26 cells = assay: MethA or CT26 tumor model; type: in vivo, BALB/c mice; conditions: BALB/c mouse, MethA (SPD 1 mg/kg) or CT26 (SPD 4 mg/kg), with PD-L1 antibody 2 mg/kg
Protocol: FIG. 2-2 a-b) MethA or CT26 cells were intradermally inoculated into BALB/c mice. Ten days after inoculation, PD-L1 antibody (2 mg/kg), PD-L1 antibody+SPD (1 mg/kg for Meth A, 4 mg/kg for CT26) or SPD alone was administered. c) LLC cells were intradermally inoculated into C57BL/6 mice. Ten days after inoculation, mice were treated in the same manner as described in a-b) above. SPD was administered at 4 mg/kg. d) MC38 cells were inoculated into C57BL/6 Rag2^−/− mice. Ten days after inoculation, mice were treated in the same manner as described in a-b) above. SPD was administered at 5 mg/kg. Tumor growth curve and survival curve are shown.

CD44 low CD8+ T cells = assay: Observation of mitochondria under electron microscope, CD44 low cells; type: cell-based, mice; conditions: SPD 0.2 μM, 1 hour
Protocol: FIG. 5 CD8^+ T cells were isolated from the spleen of mice without tumor inoculation, and further isolated into CD44^+ (CD44 high) and CD44^− (CD44 low) cell populations. a) CD44 low cells were simulated with CD3/CD28 antibody beads and SPD (0.2 μM). […] Protein expression levels after 1 hour and 2 hours were confirmed by western blotting with the respective indicated antibodies. As regards statistical analysis, t-test was used for comparison of two groups. * p<0.05, ** p<0.01, *** p<0.001, **** p<0.0001.
CD8^+ T cells (2×10^5) were stimulated with 0.2 μM spermidine for 1 hour. Then, cells were harvested, embedded in Ipgell (GenoStaff) and fixed with 4% paraformaldehyde and 2% glutaraldehyde. Images were taken with a transmission electron microscope (TEM). Mitochondrial size was determined with ImageJ software. As regards mitochondrial number, average numbers in single cell were determined with Prism software. Blind testing was used for observation and analysis of mitochondria.

## NCCCCNCCCN [SPD, spermidine]
MC38 cells; SPD (2 mg/kg) in combination with PD-L1 antibody (2 mg/kg), MC38 in C57BL/6 mice
  antitumor effect of the PD-1 inhibitory antibody: synergistically improved; also recorded: greatly enhanced
MC38 cells; spermidine alone, in living bodies
  antitumor effect: no antitumor effect
[1]; 3H uptake
  cell proliferation of isolated CD8+ T cells as stimulated with CD3: enhanced
[1]; culture supernatant
  IFN-γ production of isolated CD8+ T cells as stimulated with CD3: enhanced
MethA or CT26 cells
  effect of SPD for enhancing the antitumor immunity of PD-1 inhibition: confirmed
CD44 low CD8+ T cells
  mitochondrial size: no change
  structure of cristae: denser structures of cristae

Reference: patent publication US20220401385A1, “Combination Therapy Based on PD-1 Signaling Inhibitors” (Kyoto University, priority 2019, published 2022)
